Legend:
U2OS-ERα cells [1] = test: KRT19 mRNA real-time PCR in U2OS-ERα cells; assay type: cell-based, human; conditions: for KRT19 gene expression, compound alone: 10 nM E2, 5 μM 2′,3′,4′-THC, 1 μM tamoxifen or raloxifene, 24 hours; for effect on E2-induced KRT19 expression: in combination with 10 nM E2, 24 hours
Description: (§1) (FIG. 1a) Chemical structure of 2′, 3′, 4′-THC. (FIG. 1b) U2OS cells cotransfected with ERE tk-luciferase and ERα (left panel) or ERβ (right panel). After transfection the cells were treated for 24 hours with 10 nM estradiol and 5 μM 2′, 3′, 4′-THC alone or in combination. Cells were lysed and luciferase activity was measured. RLU is relative light units. Error bars are the Mean±SEM. **P≤0.01. […] The total cellular RNA was extracted and real-time PCR for KRT19 mRNA was performed as described in Materials and Methods. […] Error bars are ±SEM. *P≤0.05, **** P≤0.0001.
FIGS. 3a-3d. […] Error bars are ±SEM.

U2OS-ERα cells [2] = test: NKG2E mRNA real-time PCR in U2OS-ERα cells; assay type: cell-based, human; conditions: for NKG2E gene expression, compound alone: 10 nM E2, 5 μM 2′,3′,4′-THC, 1 μM tamoxifen or raloxifene
Description: as §1
(§2) (FIGS. 6a, 6b) Gene expression of (FIG. 6a) KRT73 and (FIG. 6b) NKG2E in U2OS-ERα cells treated with 10 nM estradiol, 5 μM 2′, 3′, 4′-THC, 1μM ICI alone or in combination for 24 hours. […] Error bars are ±SEM. […] After transfection, luciferase activities were measured as described in the Methods. RLU is relative light units and the data shown are mean ±SEM. (FIG. 6c). […] After transfection, luciferase activities were measured as described in the Methods. RLU is relative light units and the data shown are mean ±SEM (FIG. 6d).

U2OS-ERα cells [3] = test: Microarray gene regulation in U2OS-ERα cells; assay type: cell-based, human
Description: Total cellular RNA was isolated utilizing the Aurum™ RNA isolation kit (Bio-Rad, Hercules, Calif.) per the manufacturer's directions. RNA isolates were first quantified by nanodrop®, and then qualitatively evaluated by the Bio-Rad Experion™ system per the manufacturer's instructions. Biotin-labeled cRNA samples were prepared using 750 ng of total RNA. Biotin-labeled samples were evaluated by both 260/280 absorbance spectrophotometry and capillary electrophoresis. Labeled cRNA samples were hybridized overnight against Human genome HG U133A-2.0 GeneChip® arrays, (Affymetrix, Santa Clara, Calif.). All treatments were done in triplicate with the same batch of microarrays. The data was analyzed as previously described (Saunier, E. F., et al. Estrogenic plant extracts reverse weight gain and fat accumulation without causing mammary gland or uterine proliferation. PloS one 6, e28333 (2011)).
FIGS. 2a-2f2′, 3′, 4′-THC behaves as a unique coagonist on gene expression in U2OS-ERα cells. […] Expression was assessed by up regulation or down regulation of 3-fold or more and a P-value≤0.05. […] Error bars are ±SEM.

U2OS-ERα cells [4] = test: Real-time PCR of unique genes FGR, KCNK6, KRT73 in U2OS-ERα cells; assay type: cell-based, human
Description: Expression was assessed by up regulation or down regulation of 3-fold or more and a P-value≤0.05. […] Error bars are ±SEM.
as §2

mouse uterus = test: Ovariectomized (OVX) mouse model, osmotic pump; assay type: in vivo; conditions: OVX mice, 4 weeks
Description: 8 week old C57b1/6J female ovariectomized or intact mice were purchased from Jackson Laboratories, Sacramento, Calif. Mice were housed and maintained according to OLAC standard procedures in the NAF facility at UC Berkeley, Calif. All mice were fed a soy-free chow diet 2916.15 (Harlan Laboratories, Livermore, Calif.) starting one week before osmotic pump implantation or 2′, 3′, 4′-THC injection. Pumps Model 2006 were purchased from Alzet and filled with vehicle, 1 μg […], 2 mg of 2′, 3′, 4′-THC or the combination of 2′, 3′, 4′-THC and estradiol. All drugs were dissolved in sterile vehicle consisting of 50% dimethylsulfoxide (DMSO), 25% ETOH and 25% deionized water. Pumps were handled with sterile gloves and filled using a 27 gauge filling tube and 1 mL syringe. All pumps were placed in 1X PBS in 15 mL sterile conical tubes and incubated overnight at 37° . Pumps were surgically implanted into 8 week old C57b1/6J female ovariectomized mice (Jackson Laboratory, Sacramento, Calif.) posterior to the scapula and left for a duration of 4 weeks. Intact mice were injected intraperitoneal with 2′, 3′, 4′-THC every day for 3 weeks. Mice were weighed once a week for the duration of the experiment. The intraperitoneal gonadal fat was removed and weighed. Uterine tissue was collected, fluid drained and then weighed.
Tissues were dissected and immediately frozen in liquid nitrogen. Before RNA isolation, tissues were homogenized in PureZOL™ using the MP FastPrep™-24 for 40 seconds.
Uterine Tissue Slide Preparation Uterine tissue was removed and trimmed of excess adipose tissue. Tissues were fixed in formalin for 24 hours then transferred to 50% ETOH for 1 hour followed by 70% ethanol (ETOH) for another hour. After fixation tissues were sent to Histopathology Reference Laboratory, Hercules Calif. where they were paraffin embedded, sectioned and stained with hematoxylin and eosin for morphological exam
FIGS. 5a-5h. 2′, 3′, 4′-THC acts as antagonist in the mouse uterus. Uterine weights of intact (FIG. 5a) and OVX (FIG. 5b) mice. […] (FIG. 5h) Total body weight of OVX mice after 4 week treatment. Error bars are ±SEM.

MCF-7 cells = test: MCF-7 cell proliferation (cell counting); conditions: 5 days
ERα = ERα (Homo sapiens, UniProt P03372); test: NKG2E-TK-Luc transfection assay, U2OS cells cotransfected with ERα; assay type: cell-based; design: expressed in transfected cells; host or cells: U2OS; conditions: 5 μM 2′,3′,4′-THC + 10 or 100 nM estrogen, 24 hours
Chain of ERα (P03372 whole entry): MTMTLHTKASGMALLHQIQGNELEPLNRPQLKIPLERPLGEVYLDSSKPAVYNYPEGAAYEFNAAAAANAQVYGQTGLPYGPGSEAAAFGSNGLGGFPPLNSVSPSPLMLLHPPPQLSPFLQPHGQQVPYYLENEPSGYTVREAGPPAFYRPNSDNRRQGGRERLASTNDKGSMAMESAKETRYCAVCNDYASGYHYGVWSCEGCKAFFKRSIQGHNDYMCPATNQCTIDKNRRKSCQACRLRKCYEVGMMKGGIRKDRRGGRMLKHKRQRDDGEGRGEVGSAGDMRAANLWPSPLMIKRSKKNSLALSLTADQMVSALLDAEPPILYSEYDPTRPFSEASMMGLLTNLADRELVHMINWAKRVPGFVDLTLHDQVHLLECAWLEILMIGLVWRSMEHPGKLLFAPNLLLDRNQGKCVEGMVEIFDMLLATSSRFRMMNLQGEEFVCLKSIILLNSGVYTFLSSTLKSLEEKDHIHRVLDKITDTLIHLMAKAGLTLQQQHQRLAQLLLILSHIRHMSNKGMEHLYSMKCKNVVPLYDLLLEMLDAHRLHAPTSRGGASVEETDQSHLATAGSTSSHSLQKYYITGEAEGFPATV
Description: FIG. 7a-7e. […] (C) U2OS cells cotransfected with GRE-TK-Luc and human (h) GR and treated with 10 nM of dexamethasone (Dex) and 5 μM of 2′, 3′, 4′-THC alone or in combination for 24 hours. (D) U2OS cells cotransfected with human tyrosine aminotransferase (TATS)-luciferase reporter gene and hAR and treated with 10 nM of dihydrotestosterone (DHT) and 5 μM of 2′, 3′, 4′-THC alone or in combination for 24 hours. (E) U2OS cells cotransfected with TAT3-luciferase reporter gene and hPR-B and treated with 10 nM of progesterone (Prog) and 5 μM of 2′, 3′, 4′-THC alone or in combination for 24 hours. After transfection, luciferase activities were measured as described in the Methods. RLU is relative light units and the data shown are mean±SEM.
as §2

[5] = 1 μM ICI, 10 nM estradiol, 5 μM 2′,3′,4′-THC, 24 hours

With `C[C@]12CC[C@@H]3c4ccc(O)cc4CC[C@H]3[C@@H]1CC[C@@H]2O` [E2, 17β-estradiol, reference compound] the “KRT19 gene expression, compound alone” value (U2OS-ERα cells [1]) was “induced”, the “NKG2E gene expression, compound alone” value (U2OS-ERα cells [2]; 24 hours) was “activated” and the “genes uniquely regulated by E2 alone” value (U2OS-ERα cells [3]; 10 nM E2) was 222 genes. For the same compound, the “number of genes regulated, compound alone” value (U2OS-ERα cells [3]; 10 nM E2 or 5 μM 2′,3′,4′-THC, 3-fold or more, P≤0.05) was 756 genes, the “E2 dose at which FGR activation was observed” value (U2OS-ERα cells [4]; E2 alone, 24 hrs) was 10 nM and the KCNK6 regulation (U2OS-ERα cells [4]; E2 alone, 24 hrs) was “not regulated”. For the same compound, the KRT73 regulation (U2OS-ERα cells [4]; E2 alone, 24 hrs) was “not regulated”, the “H & E staining of uterus, compound alone” value (mouse uterus) was “increased the number of cells lining the duct” and the “amount of gonadal adipose tissue fat” value (mouse uterus; E2 alone) was “decreased”. The “uterine size / uterine weight, compound alone” value (mouse uterus; osmotic pump) was “large increase” and the “MCF-7 cell proliferation, compound alone” value (MCF-7 cells) was “increased”.

`COc1cc2c(cc1O)CC[C@@H]1[C@@H]2CC[C@]2(C)[C@@H](O)CC[C@@H]12` [2-methoxyestradiol, reference compound] was tested, and the “synergistic action of 2′,3′,4′-THC on NKG2E-TK-Luc with the named estrogen” value (“synergistic action of 2′,3′,4′-THC” for short) (ERα) was “smaller synergistic activation”.

With `O=C(c1ccc(OCCN2CCCCC2)cc1)c1c(-c2ccc(O)cc2)sc2cc(O)ccc12` [raloxifene] the “KRT19 gene expression, compound alone” value (U2OS-ERα cells [1]) was “no effect”, the “effect on E2-induced KRT19 expression” value (U2OS-ERα cells [1]) was “blocked” and the “NKG2E gene expression, compound alone” value (U2OS-ERα cells [2]; 24 hours) was “activated”. For the same compound, the “effect on E2-induced NKG2E gene expression” value (U2OS-ERα cells [2]; in combination with 10 nM E2, 24 hours) was “antagonized”.

In the case of `C[C@]12CC[C@@H]3c4ccc(O)c(O)c4CC[C@H]3[C@@H]1CC[C@@H]2O` [4-hydroxyestradiol, reference compound], the “synergistic action of 2′,3′,4′-THC” value (ERα) is reported as “synergistic action”.

`C[C@]12CC[C@@H]3c4ccc(O)cc4C[C@@H](CCCCCCCCC[S+]([O-])CCCC(F)(F)C(F)(F)F)[C@H]3[C@@H]1CC[C@@H]2O` (some centres unmarked) [ICI 182,780] was tested, and the “effect on induction of NKG2E by the 2′,3′,4′-THC/E2 combination” value (U2OS-ERα cells [2]; [5]) was “blocked” and the “effect on induction of KRT73 by the 2′,3′,4′-THC/E2 combination” value (U2OS-ERα cells [4]; [5]) was “blocked”.

`C[C@]12CC[C@@H]3c4cc(O)c(O)cc4CC[C@H]3[C@@H]1CC[C@@H]2O` [2-hydroxyestradiol, reference compound] was tested, and the “synergistic action of 2′,3′,4′-THC” value (ERα) was “synergistic action”.

In the case of `CC/C(=C(\c1ccccc1)c1ccc(OCCN(C)C)cc1)c1ccccc1` [tamoxifen], the “KRT19 gene expression, compound alone” value (U2OS-ERα cells [1]) is reported as “no effect”, the “effect on E2-induced KRT19 expression” value (U2OS-ERα cells [1]) is reported as “blocked” and the “NKG2E gene expression, compound alone” value (U2OS-ERα cells [2]; 24 hours) is reported as “activated”.

Reference: US20190008797A1, “ESTROGEN RECEPTOR ALPHA COLIGANDS, AND METHODS OF USE THEREOF” (priority 2016, published 2019)
